Where two headings read alike, the source gives them in different places.
Columns and labels:
[1] = tested on: amphetamine and methamphetamine monoclonal antibodies (mouse); assay: Roche Hitachi AMP/MDMA immunoassay (method of the invention, MDMA calibrator), cross-reactivity; conditions: cutoff 300 ng/ml, MDMA calibrator, HITACHI 917 analyzer
[2] = tested on: amphetamine antibody and methamphetamine antibody; conditions: cutoff 1000 ng/ml, currently marketed assay, cited from earlier work
[3] = tested on: amphetamine antibody and methamphetamine antibody; conditions: cutoff 1000 ng/ml, currently marketed assay, cited from earlier work; remark: listed apart in the source
[4] = tested on: amphetamine antibody and methamphetamine antibody; conditions: cutoff 500 ng/ml, currently marketed assay, cited from earlier work
[5] = tested on: amphetamine antibody and methamphetamine antibody; conditions: cutoff 500 ng/ml, currently marketed assay, cited from earlier work; remark: listed apart in the source
[6] = tested on: amphetamine and methamphetamine monoclonal antibodies (mouse); assay: Roche Hitachi AMP/MDMA immunoassay with MDA calibrator, cross-reactivity; conditions: cutoff 300 ng/ml, HITACHI 717 analyzer

Row | SMILES | Cross-reactivity, Roche Hitachi AMP/MDMA [1] [%] | Cross-reactivity, Abbott TDX AMP/methAMP [2] [%] | Cross-reactivity, CEDIA DAU AMP [3] [%] | Cross-reactivity, Roche Integra AMPSC [4] [%] | Cross-reactivity, Roche Hitachi AMP [5] [%] | Cross-reactivity, Roche Hitachi AMP/MDMA, MDA used as calibrator [6] [%] | other results
1 | CCC(N)Cc1ccc2c(c1)OCO2 (racemic) [BDB, (±)-(3,4-methylenedioxyphenyl)-2-butanamine] | 4.7 |  |  |  |  |  | 
2 | CCC(Cc1ccc2c(c1)OCO2)NC (racemic) [MBDB, (±)-N-methyl-1-(3,4-methylenedioxyphenyl)-2-butanamine] | 70.0 |  |  |  |  |  | 
3 | CC(N)Cc1ccc2c(c1)OCO2 (racemic) [MDA, (±)-3,4-methylenedioxyamphetamine] | 25.0 | 148 | 1.9 | 40 | 35.5 | 100.0 | 
4 | CNC(C)Cc1ccc2c(c1)OCO2 (racemic) [MDMA, (±)-3,4 methylenedioxymethamphetamine] | 100.0 | 97 | 69 | 79 | 36 | 81.0 | 
5 | CN[C@@H](C)[C@H](O)c1ccccc1 (racemic) [dl-ephedrine, ephedrine] | <0.3 |  | 0.4 | <0.1 | <0.1 | 0.34 | 
6 | CNC(C)Cc1ccc(O)c(OC)c1 (stereo not drawn) [HMMA, 4-hydroxy-3-methoxymethamphetamine] | <0.3 |  |  |  |  |  | 
7 | CC(N)Cc1ccccc1 (stereo not drawn) [d-AMP, amphetamine] | 97.0 | 100 | 101 | 100 | 100 | 319.0 | 
8 | CN[C@@H](C)Cc1ccccc1 [d-MAMP, methamphetamine] | 300.0 | 97.8 | 100 | 12 | 82.2 | 269.0 | 
9 | CC(N)Cc1ccccc1 (stereo not drawn) [l-AMP, amphetamine] |  |  |  |  |  | 15.2 | Cross-reactivity, Abbott TDX AMP/methAMP ([2]; listed as 1-AMP): 56.9%; Cross-reactivity, Roche Hitachi AMP/MDMA ([1]; listed as 1-AMP): 3.8%; Cross-reactivity, CEDIA DAU AMP ([3]; listed as 1-AMP): 3.0%; Cross-reactivity, Roche Integra AMPSC ([4]; listed as 1-AMP): 4.2%; Cross-reactivity, Roche Hitachi AMP ([5]; listed as 1-AMP): 6%
10 | CN[C@@H](C)Cc1ccccc1 [l-MAMP, methamphetamine] |  |  |  | 12 |  | 24.7 | Cross-reactivity, Abbott TDX AMP/methAMP ([2]; listed as 1-MAMP): 7.2%; Cross-reactivity, Roche Hitachi AMP/MDMA ([1]; listed as 1-MAMP): 18%; Cross-reactivity, CEDIA DAU AMP ([3]; listed as 1-MAMP): 12%; Cross-reactivity, Roche Hitachi AMP ([5]; listed as 1-MAMP): 0.8%
11 | CC(N)C(O)c1ccccc1 (stereo not drawn) [l-PPA, phenylpropanolamine] | 0.6 |  |  | 1.1 | 1.5 | 6.2 | 

From US6534325B1, “Immunoassay for the detection of amphetamines, methamphetamines and methylenedioxy designer amphetamines” (priority 2000, dated 2003)
